Here are results for nine molecules from patent US8697630B2, “Method for lowering insulin resistance” (Nestec S.A., priority 2005, dated 2014).

The test system of one data set is Wild Type C57BL/6J mice. The data set can be described thus: Study 2/5: increasing 18:2 PUFA, insulin sensitivity. Type of data set: in vivo. The following applies: 18:2 at 2%, 4%, 6% en; WT mice. An excerpt:
Studies 2 and 5 were combined (n=18) where we compared TYPE B Leptr (−/−) (Study2) with the Wild Type mouse (Study 5) used in the backcross for Leptr (−/−), i.e., C57BL/6J. Here, we also examined the effects of food restriction on TYPE B (which over eat like TYPE A because neither have leptin receptors) and added the design of increasing 18:2 PUFA (increments at 2%, 4%, 6% en) while assessing the insulin sensitivity response. […] They had lower glucose than TYPE A, better insulin testing, yet became obese and insulin resistant, glucose intolerant, etc. […] This was the second clue (after n 3 FA in Study 1) that the type and mass of fatty acid intake can have a big influence on mouse insulin dynamics.

For another data set, the target named is T1, glucose transporter (Homo sapiens, UniProt P11166).
T1 construct: various catechins tested on glucose transport from erythrocytes
T1 sequence (P11166 1-492): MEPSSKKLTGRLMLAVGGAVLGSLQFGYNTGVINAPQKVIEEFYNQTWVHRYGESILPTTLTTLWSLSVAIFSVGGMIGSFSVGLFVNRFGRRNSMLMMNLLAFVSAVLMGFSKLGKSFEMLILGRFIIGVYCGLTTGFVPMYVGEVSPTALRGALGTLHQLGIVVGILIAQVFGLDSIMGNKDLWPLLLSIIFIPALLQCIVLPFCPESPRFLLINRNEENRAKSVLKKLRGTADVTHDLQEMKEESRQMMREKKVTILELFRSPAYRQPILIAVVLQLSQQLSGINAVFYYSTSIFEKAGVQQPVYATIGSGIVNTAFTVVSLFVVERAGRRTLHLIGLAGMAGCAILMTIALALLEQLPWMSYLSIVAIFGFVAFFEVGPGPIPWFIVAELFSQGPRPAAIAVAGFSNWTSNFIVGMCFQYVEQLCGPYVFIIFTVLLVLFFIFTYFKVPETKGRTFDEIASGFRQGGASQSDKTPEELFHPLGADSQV
The note with it: cited from earlier work.

For data set [1] the following is noted: 1.5 mmole ingested, cited from earlier work.
The test system of a further data set is Zucker fa/fa rats. The note with it: 100 mg/kg for 3-weeks; vs control obese rats; cited from earlier work.
For data set [2], the system named is STZ-induced diabetic rats. The following applies: following intravenous insulin tolerance testing; cited from earlier work.
A further data set concerns Type 2 diabetics. The following applies: cited from earlier work.
The test system of a further data set is adults. The following applies: estimated; cited from earlier work.
The test system of a further data set is diabetic subjects. The note with it: cited from earlier work; for plasma glucose peak level / time of plasma glucose peak: diabetic subjects; for change in insulin concentration: in vivo.
A further data set deals with healthy subjects. The following applies: 50 g; cited from earlier work.
The test system of the next data set is ApoE (−/−) mice. The data set can be described thus: Study 14: plasma total cholesterol, retinol, tocopherol. Type of data set: in vivo. The following applies: 0.5 g/kg in 0.08% cholesterol diet vs same diet without statin; 14 weeks. An excerpt:
The objective of this study was to investigate the effect of a statin (Mevacor) on cholesterol levels. Each of three groups of ApoE (−/−) mice was fed one of three diets, each diet containing a different cholesterol level (i.e., 0, 0.4, and 0.8 g/kg). A fourth group was fed the diet containing 0.8 g/kg of cholesterol with the further inclusion of 0.5 g/kg of a statin (i.e., Mevacor).

For the next data set, the system named is alloxan diabetic rats. The note with it: after six weeks; extract 100 mg/kg; cited from earlier work.
A further data set concerns 3T3-L1 cells. The note with it: 240 nmol/L; cited from earlier work.
The target of data set [3] is T2, protein tyrosine phosphatase-1B (Homo sapiens, UniProt P18031).
T2 sequence (P18031 1-435): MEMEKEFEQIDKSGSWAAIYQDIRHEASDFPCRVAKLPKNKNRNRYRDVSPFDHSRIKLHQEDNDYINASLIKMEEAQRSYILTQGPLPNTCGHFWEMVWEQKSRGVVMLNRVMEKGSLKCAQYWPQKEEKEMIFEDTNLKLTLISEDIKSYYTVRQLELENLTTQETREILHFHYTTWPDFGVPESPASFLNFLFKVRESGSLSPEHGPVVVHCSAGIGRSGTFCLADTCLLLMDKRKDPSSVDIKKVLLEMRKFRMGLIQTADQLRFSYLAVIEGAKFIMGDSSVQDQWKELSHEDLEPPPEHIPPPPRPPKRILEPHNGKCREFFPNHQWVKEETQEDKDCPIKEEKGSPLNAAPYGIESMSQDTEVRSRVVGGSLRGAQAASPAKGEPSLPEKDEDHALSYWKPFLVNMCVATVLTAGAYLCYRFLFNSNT
The note with it: cited from earlier work.

Regarding `CCCCC/C=C\C/C=C\CCCCCCCC(=O)O` [18:2, linoleic acid], in the data set with Wild Type C57BL/6J mice, the sensitivity to insulin entry was “appeared to increase sensitivity to insulin”.
Turning to `O=C(O[C@@H]1Cc2c(O)cc(O)cc2O[C@@H]1c1cc(O)c(O)c(O)c1)c1cc(O)c(O)c(O)c1` [EGCG, epigallocatechin gallate], on glucose transporter, the “increase of affinity for the glucose transporter over EGC” value was 2 to 4 orders of magnitude. In addition, in data set [1], the Peak maximum is recorded as 1.3 μmol. 1-1 and the “detection in the urine” value was “not detected”. Further, in data set [1] (ten healthy volunteers), the “elimination T1/2” value was 3.9 h.
`C[C@@H]([C@H](C)O)[C@H](N)C(=O)O` [ID-1101, 4-hydroxyisoleucine]: the hyperinsulinemia result in the data set with Zucker fa/fa rats was “reduced hyperinsulinemia”.
Take `O=C(O)CCCCC1CCSS1` (stereo not shown) [LA, Lipoic acid]: the “reduction in the area under the glucose curve” value in data set [2] is 13%. Besides, the “reduction of lactate and pyruvate after oral glucose loading” value in the data set on Type 2 diabetics (1200 mg LA (oral) for 4-wks) was 45%. The “improvement of insulin sensitivity” value in the data set with Type 2 diabetics (600, 1200 and 1800 mg/d oral) was 17%. Besides, in the data set with Type 2 diabetics (given as 3 doses of 600 mg), the “oral dose reported to be safe” value is “up to 1800 mg/d”.
In the case of `OC[C@H]1O[C@H](OC[C@H]2OC(O)(CO)[C@@H](O)[C@@H]2O)[C@H](O)[C@@H](O)[C@@H]1O` (stereo partly shown) [isomaltulose], the “minimum effect dose (mental concentration)” value with adults is “more than 5 g”. Besides, in the data set on diabetic subjects, the “plasma glucose peak level” value is 195 ± 14 mg/dL, the “time of plasma glucose peak” value was 120 min and the change in insulin concentration was 41.1 ± 7.4 µU/mL. Further, in the data set on healthy subjects, the blood glucose peak was 110.9 ± 4.9 mg/dL and the “time of blood glucose peak” value is reported as 60 min.
As for `CC[C@H](C)C(=O)O[C@H]1C[C@@H](C)C=C2C=C[C@H](C)[C@H](CC[C@@H]3C[C@@H](O)CC(=O)O3)[C@H]21` [statin], in the data set on ApoE (−/−) mice, the “liver, aortal, and plasma cholesterol levels” value is recorded as “significant reduction”.
For `OC[C@H]1O[C@@](CO)(O[C@H]2O[C@H](CO)[C@@H](O)[C@H](O)[C@H]2O)[C@@H](O)[C@@H]1O` [sucrose], in the data set with diabetic subjects, the “plasma glucose peak level” value is 237 ± 12 mg/dL, the “time of plasma glucose peak” value is reported as no more than 60 min and the change in insulin concentration was 59.3 ± 12 µU/mL. In the data set with healthy subjects, the blood glucose peak was 143.3 ± 8.8 mg/dL and the “time of blood glucose peak” value was 30 min.
Consider insulin: insulin, for which, in the data set with alloxan diabetic rats, the “decrease in fasting blood glucose” value is -183.1 mg/dL. In addition, the “greatest glucose uptake relative to maximum uptake observed with BE” value in the data set on 3T3-L1 cells is reported as 2.7 times.
Consider methylhydroxychalcone polymer [MHCP], for which the “inhibition of protein tyrosine phosphatase-1B” value in data set [3] is reported as “inhibits”.
